Results as given in patent US20050287552A1, “Carbohydrate encapsulated nanoparticle based affinity mass spectrometry” (Academia Sinica, Office of Public Affairs (Technology …, priority 2003, published 2005).

Target: Con A (Canavalia ensiformis, UniProt P02866)
Assay: SPR competition binding assay for Con A
Conditions: Con A tetramer 0.5 uM, pre-incubated 1 hr with inhibitor
Description: A self-assembled monolayer composed of 20% mannopyranoside ligand and 80% thiobutanol mixture was generated on a J1 biosensor chip (See FIG. 9). In particular, immobilization of ligand to the biosensor chip was preformed in BIAcore 3000 instrument. A mixture of 4-mercapto-1-butanol (Ligand A) and 5-thiopentyl α-D-mannopyranoside (Ligand B) in deionized water was injected into a flow cell with the J1 biochip.
Next, the binding affinity of Con A for this chip was determined by titration with a series of Con A concentrations to generate multiple SPR curves. In particular, Con A was dissolved in sample buffer (1.0 mL, 20 mM HEPES, pH 7.0, 90 mM NaCl with 1 mM MnCl2 and CaCl2) and then filtered by a syringe. Con A solution (50 μL) was injected over immobilized biosensor surface and allowed 260 seconds for dissociation and then followed by regeneration buffer. A set of SPR response curves was obtained after different concentrations of Con A solution were applied (See FIG. 10A, showing curves for 6, 3, 1.5, 0.38, 0.19 uM of Con A (top to bottom)).
Competition assays were then conducted. […] The mixture (50 uL) was then injected and the flow rate was controlled at 60 uL/minute. The equilibrium binding response values was collected at equilibrium binding portion of the curve (260 seconds post-injection). […]

α-D-methyl-mannopyrannoside [αMeMan]
Ki: 200 µM
